Columns and labels:
Assay type in all cases: cell-based
[1] = test system: non-phosphorylated β-catenin; assay: Western blot of non-phosphorylated β-catenin content in HepG2 cells; details: overnight, read-out: Non-phosphorylated β-catenin content inhibition IC50
Text: (§1) The Wnt signaling pathway is a key pathway for abnormal tumor growth. In colon cancer, liver cancer, pancreatic cancer and other cancers, a large number of patients have abnormal activation of the Wnt signaling pathway. The Wnt signaling pathway depends on the fine balance of β-catenin protein level. When Wnt signaling is not activated, β-catenin is phosphorylated by CK1 and APC/Axin/GSK-3β complexes, and the β-catenin protein is kept at a low level through ubiquitin-dependent proteasome degradation. When the Wnt signaling pathway is activated, β-catenin maintains a stable state of non-phosphorylation, and non-phosphorylated β-catenin can be transported into the nucleus through Rac1 and other factors, and plays a transcriptional regulatory role by binding to LEF/TCF transcription factors in the nucleus, activates downstream target genes such as C-myc and Cyclin D1, and promotes cell proliferation. Therefore, abnormal activation of the Wnt signaling pathway in tumor cells will lead to abnormal proliferation of tumors. […]
(§2) Add 500 μL of the compound with the highest concentration shown in FIG. 1 to each well of the 6-well cell culture plate, and make a 10-fold gradient dilution of the compound concentration. […] Load the protein sample directly to the SDS-PAGE gel for electrophoresis separation, transfer the protein on the SDS-PAGE gel to the PVDF membrane; after the transfer was completed, the protein was blocked by Western blocking solution, then Rabbit anti-β-catenin non-phospho S37/After T41 (ab278503) was added and the protein was incubated at room temperature for one hour and washed, the content of non-phosphorylated β-catenin was detected by incubation with Goat Anti-Rabbit IgG H&L (HRP) (ab6721). […]

[2] = test system: non-phosphorylated β-catenin; assay: Western blot of non-phosphorylated β-catenin content in DU4475 cells; details: overnight, read-out: Non-phosphorylated β-catenin content inhibition IC50
Text: as §1, §2

Raji = assay: Tumor cell proliferation inhibition (Promega cell viability, 72 h); details: Homo sapiens, Raji cells, read-out: Anti-proliferation IC50
Experimental: (§3) The cell lines used in the experiment are various tumor cells, including DU4475, Colo205, HepG2, PLC/PRF/5, BT-20, LS174T, NCI-H929, HCT116, SW620, SK-CO-1, SW480, DLD1, HT-29, SW900, SW1417, HuH7, H2009, PANC-1, SW48, Duadi, H358, HCT15, 22Rv1, Hela, RKO, Raji, Jurkat, NCI-H716, MDA-MB-231, NCI-H157 and THP1, and the inhibitory effect of the compound of the present disclosure on the proliferation of these tumor cells is determined, in order to screen out sensitive cell types of the compound of the present disclosure.
(§4) DU4475, Colo205, HepG2, PLC/PRF/5, BT-20, LS174T, NCI-H929, HCT116, SW620, SK-CO-1, SW480, DLD1, HT-29, SW900, SW1417, HuH7, H2009, PANC-1, SW48, Duadi, H358, HCT15, 22Rv1, Hela, RKO, Raji, Jurkat, NCI-H716, MDA-MB-231, NCI-H157 and THP1 cell lines cultured in each medium were treated during the logarithmic growth phase, and the cells were collected and prepared into a uniform cell suspension of known concentration, and then added to the 96-well cell culture plate to make each well contain 1000 cells. Put it into a 5% CO2 incubator and incubate at 37° C. for 20-24 h. The next day, the fully dissolved 3-fold gradient diluted compound was added to each cell culture well, so that the final maximum concentration in the cell culture well was 20 μM, and the culture was continued for 72 hours. In this test, Promega's cell viability detection test is used for detection. The more the cells proliferate, the stronger the final signal intensity will be. The detection instrument is SpectraMax, full wavelength mode. The wells with only DMSO added were used as positive control wells, and the wells without cells inoculated were used as negative control wells. The IC50 value of each compound for different cell proliferation inhibition was calculated to evaluate the inhibitory effect of the compound on different tumor cells.

H358 = assay: as above; details: Homo sapiens, NCI-H358, H358 cells, read-out: Anti-proliferation IC50
Experimental: as §3, §4

22Rv1 = assay: as above; details: Homo sapiens, 22Rv1 cells, read-out: Anti-proliferation IC50
Experimental: as §3, §4

H2009 = assay: as above; details: Homo sapiens, NCI-H2009, H2009 cells, read-out: Anti-proliferation IC50
Experimental: as §3, §4

RKO = assay: as above; details: Homo sapiens, RKO cells, read-out: Anti-proliferation IC50
Experimental: as §3, §4

DU4475 = assay: as above; details: Homo sapiens, DU-4475, DU4475 cells, read-out: Anti-proliferation IC50
Experimental: as §3, §4

Duadi = assay: as above; details: Duadi cells, read-out: Anti-proliferation IC50
Experimental: as §3, §4

SW48 = assay: as above; details: Homo sapiens, SW48 cells, read-out: Anti-proliferation IC50
Experimental: as §3, §4

HCT15 = assay: as above; details: Homo sapiens, HCT-15, HCT15 cells, read-out: Anti-proliferation IC50
Experimental: as §3, §4

HCT116 = assay: as above; details: Homo sapiens, HCT-116, HCT116 cells, read-out: Anti-proliferation IC50
Experimental: as §3, §4

Colo205 = assay: as above; details: Homo sapiens, COLO 205, Colo205 cells, read-out: Anti-proliferation IC50
Experimental: as §3, §4

HT-29 = assay: as above; details: Homo sapiens, HT-29 cells, read-out: Anti-proliferation IC50
Experimental: as §3, §4

IC50 [1] [nM] | IC50 [2] [nM] | IC50 (Raji) [nM] | IC50 (H358) [nM] | IC50 (22Rv1) [nM] | IC50 (H2009) [nM] | IC50 (RKO) [nM] | IC50 (DU4475) [nM] | IC50 (Duadi) [nM] | IC50 (SW48) [nM] | IC50 (HCT15) [nM] | IC50 (HCT116) [nM] | IC50 (Colo205) [nM] | IC50 (HT-29) [nM] | SMILES
5.9 | 29 | > 10000 | > 10000 | > 10000 | 91.7 | > 10000 | 7.9 | > 10000 | > 10000 | > 10000 | 142 | 9 | 352 | Cc1nc(C(F)(F)F)ncc1Oc1ccc(CNc2nc(C)c3c(n2)N(C)[C@@H](C)C(=O)N3)cn1 [AN10250484]
4 | 157 | > 10000 | > 10000 | > 10000 | 214 | > 10000 | 36.9 | > 10000 | > 10000 | > 10000 | 240 | 43 | 131 | [2H]C([2H])([2H])N1c2nc(NCc3ccc(Oc4cnc(C(F)(F)F)nc4)nc3)nc3c2N(CCC3)C(=O)[C@]1(C)CO [AN10250399]

From patent publication US20240085425A1, “BIOMARKER AND APPLICATION THEREOF” (ADLAI NORTYE BIOPHARMA CO., LTD., priority 2022, published 2024)
